Measured values from the kinase profiling compilation of Christmann-Franck et al. (2016).

Experiments:
Assay in all cases: radiometric filter-binding kinase assay, Kinase HotSpot
Details in all cases: compound 0.5 µM; ATP 10 µM
[1] = molecular target: ACVR1B (human) (UniProt P36896)
[2] = molecular target: ULK1 (human) (UniProt O75385)
[3] = molecular target: IKBKB (human) (UniProt O14920)
[4] = molecular target: KIT (human) (UniProt P10721)
[5] = molecular target: CAMK2D (human) (UniProt Q13557)
[6] = molecular target: EPHA2 (human) (UniProt P29317)
[7] = molecular target: MST1R (human) (UniProt Q04912)
[8] = molecular target: FGFR4 (human) (UniProt P22455)
FGFR4 (human), sequence (P22455 whole entry, looked up): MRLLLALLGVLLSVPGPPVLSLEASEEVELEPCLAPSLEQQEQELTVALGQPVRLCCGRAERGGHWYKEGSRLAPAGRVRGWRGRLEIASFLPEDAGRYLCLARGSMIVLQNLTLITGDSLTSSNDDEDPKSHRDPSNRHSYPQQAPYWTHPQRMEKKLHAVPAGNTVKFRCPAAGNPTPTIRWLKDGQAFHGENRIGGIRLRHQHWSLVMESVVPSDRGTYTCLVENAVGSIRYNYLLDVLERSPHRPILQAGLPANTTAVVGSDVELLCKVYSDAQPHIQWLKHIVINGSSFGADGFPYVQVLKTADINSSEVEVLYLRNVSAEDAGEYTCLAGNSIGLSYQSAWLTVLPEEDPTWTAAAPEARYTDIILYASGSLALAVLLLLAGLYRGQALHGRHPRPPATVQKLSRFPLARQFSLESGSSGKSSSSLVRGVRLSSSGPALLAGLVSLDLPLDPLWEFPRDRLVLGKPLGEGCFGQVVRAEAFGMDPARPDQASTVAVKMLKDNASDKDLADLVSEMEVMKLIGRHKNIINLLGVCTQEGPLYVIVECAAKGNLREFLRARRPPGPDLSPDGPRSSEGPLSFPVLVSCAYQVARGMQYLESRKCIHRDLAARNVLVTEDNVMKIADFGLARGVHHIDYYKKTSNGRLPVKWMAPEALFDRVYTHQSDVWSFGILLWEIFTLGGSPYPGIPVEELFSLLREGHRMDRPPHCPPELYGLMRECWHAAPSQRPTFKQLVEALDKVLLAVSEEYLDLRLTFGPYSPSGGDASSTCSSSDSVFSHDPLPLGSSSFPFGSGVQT

[9] = molecular target: TEK (human) (UniProt Q02763)
[10] = molecular target: NEK4 (human) (UniProt P51957)
[11] = tested on: FLT4 (human), P35916 [Q890H]
[12] = molecular target: MAP3K7 TAB1 (human) (UniProt O43318+Q15750)
[13] = molecular target: RET (human) (UniProt P07949)
[14] = molecular target: CDK2 CCNE1 (human) (UniProt P24941+P24864)
[15] = molecular target: CAMK2G (human) (UniProt Q13555)
[16] = molecular target: NEK1 (human) (UniProt Q96PY6)
NEK1 (human), sequence (Q96PY6 whole entry, looked up): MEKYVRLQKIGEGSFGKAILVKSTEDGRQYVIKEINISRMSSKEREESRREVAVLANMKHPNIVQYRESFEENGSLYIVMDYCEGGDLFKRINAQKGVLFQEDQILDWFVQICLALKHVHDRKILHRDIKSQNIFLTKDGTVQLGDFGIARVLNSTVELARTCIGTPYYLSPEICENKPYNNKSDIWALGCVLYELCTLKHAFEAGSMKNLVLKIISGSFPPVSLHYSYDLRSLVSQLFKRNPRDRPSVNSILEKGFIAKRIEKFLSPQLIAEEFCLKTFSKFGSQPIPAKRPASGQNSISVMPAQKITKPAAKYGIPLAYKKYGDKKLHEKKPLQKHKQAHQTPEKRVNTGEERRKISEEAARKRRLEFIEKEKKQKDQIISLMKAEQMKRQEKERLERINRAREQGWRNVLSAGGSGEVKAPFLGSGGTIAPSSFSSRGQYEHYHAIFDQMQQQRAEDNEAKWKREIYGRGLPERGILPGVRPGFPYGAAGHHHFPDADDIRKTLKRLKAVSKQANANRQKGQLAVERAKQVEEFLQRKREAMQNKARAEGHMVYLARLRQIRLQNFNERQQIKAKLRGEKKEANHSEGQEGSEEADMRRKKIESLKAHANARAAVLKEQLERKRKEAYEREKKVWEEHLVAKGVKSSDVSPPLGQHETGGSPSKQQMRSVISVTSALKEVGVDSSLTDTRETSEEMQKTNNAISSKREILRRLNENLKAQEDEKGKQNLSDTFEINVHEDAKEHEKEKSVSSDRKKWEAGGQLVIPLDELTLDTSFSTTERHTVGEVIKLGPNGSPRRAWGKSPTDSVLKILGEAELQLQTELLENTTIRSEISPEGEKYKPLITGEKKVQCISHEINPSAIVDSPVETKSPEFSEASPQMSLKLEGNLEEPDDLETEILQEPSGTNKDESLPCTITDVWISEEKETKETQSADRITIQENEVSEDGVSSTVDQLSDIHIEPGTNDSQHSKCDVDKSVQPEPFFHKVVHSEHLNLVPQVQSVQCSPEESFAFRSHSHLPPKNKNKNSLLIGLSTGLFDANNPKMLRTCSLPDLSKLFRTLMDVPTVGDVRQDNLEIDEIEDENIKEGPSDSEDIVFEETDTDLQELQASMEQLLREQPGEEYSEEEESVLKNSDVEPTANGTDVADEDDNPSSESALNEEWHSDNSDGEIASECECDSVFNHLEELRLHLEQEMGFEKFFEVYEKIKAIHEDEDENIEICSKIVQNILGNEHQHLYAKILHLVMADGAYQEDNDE

[17] = molecular target: MATK (human) (UniProt P42679)
[18] = molecular target: BRSK2 (human) (UniProt Q8IWQ3)
[19] = molecular target: DAPK1 (human) (UniProt P53355)
[20] = molecular target: TEC (human) (UniProt P42680)
TEC (human), sequence (P42680 whole entry, looked up): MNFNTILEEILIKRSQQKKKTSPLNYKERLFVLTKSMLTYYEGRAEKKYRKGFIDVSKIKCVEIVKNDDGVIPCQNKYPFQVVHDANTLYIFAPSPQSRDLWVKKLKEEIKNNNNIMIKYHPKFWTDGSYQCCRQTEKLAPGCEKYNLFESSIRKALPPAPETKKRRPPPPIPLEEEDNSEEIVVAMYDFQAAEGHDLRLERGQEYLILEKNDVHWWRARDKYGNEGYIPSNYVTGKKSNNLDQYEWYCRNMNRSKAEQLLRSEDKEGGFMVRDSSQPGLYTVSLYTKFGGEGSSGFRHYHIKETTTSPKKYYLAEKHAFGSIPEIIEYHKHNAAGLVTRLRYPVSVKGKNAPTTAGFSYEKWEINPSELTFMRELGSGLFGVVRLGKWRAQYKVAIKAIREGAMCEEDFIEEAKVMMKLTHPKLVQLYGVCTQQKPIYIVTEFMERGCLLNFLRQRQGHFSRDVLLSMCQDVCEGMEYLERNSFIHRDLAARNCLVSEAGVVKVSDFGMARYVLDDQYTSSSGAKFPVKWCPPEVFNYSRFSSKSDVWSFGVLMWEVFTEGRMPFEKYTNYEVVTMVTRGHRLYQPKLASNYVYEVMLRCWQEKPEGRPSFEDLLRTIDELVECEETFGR

[21] = molecular target: BLK (human) (UniProt P51451)
[22] = molecular target: EPHB4 (human) (UniProt P54760)
[23] = molecular target: MAPK12 (human) (UniProt P53778)
[24] = molecular target: RPS6KA3 KD1 KD2 (human) (UniProt P51812)
[25] = molecular target: AKT1 (human) (UniProt P31749)
[26] = molecular target: PRKCG (human) (UniProt P05129)
[27] = molecular target: PAK1 (human) (UniProt Q13153)
[28] = molecular target: NTRK1 (human) (UniProt P04629)
[29] = molecular target: INSR (human) (UniProt P06213)
[30] = molecular target: HIPK3 (human) (UniProt Q9H422)
[31] = molecular target: MYLK (human) (UniProt Q15746)
[32] = molecular target: FER (human) (UniProt P16591)
[33] = molecular target: STK39 (human) (UniProt Q9UEW8)
[34] = molecular target: SLK (human) (UniProt Q9H2G2)
[35] = molecular target: CDK1 CCNA2 (human) (UniProt P06493+P20248)
[36] = molecular target: ROCK2 (human) (UniProt O75116)
ROCK2 (human), sequence (O75116 whole entry, looked up): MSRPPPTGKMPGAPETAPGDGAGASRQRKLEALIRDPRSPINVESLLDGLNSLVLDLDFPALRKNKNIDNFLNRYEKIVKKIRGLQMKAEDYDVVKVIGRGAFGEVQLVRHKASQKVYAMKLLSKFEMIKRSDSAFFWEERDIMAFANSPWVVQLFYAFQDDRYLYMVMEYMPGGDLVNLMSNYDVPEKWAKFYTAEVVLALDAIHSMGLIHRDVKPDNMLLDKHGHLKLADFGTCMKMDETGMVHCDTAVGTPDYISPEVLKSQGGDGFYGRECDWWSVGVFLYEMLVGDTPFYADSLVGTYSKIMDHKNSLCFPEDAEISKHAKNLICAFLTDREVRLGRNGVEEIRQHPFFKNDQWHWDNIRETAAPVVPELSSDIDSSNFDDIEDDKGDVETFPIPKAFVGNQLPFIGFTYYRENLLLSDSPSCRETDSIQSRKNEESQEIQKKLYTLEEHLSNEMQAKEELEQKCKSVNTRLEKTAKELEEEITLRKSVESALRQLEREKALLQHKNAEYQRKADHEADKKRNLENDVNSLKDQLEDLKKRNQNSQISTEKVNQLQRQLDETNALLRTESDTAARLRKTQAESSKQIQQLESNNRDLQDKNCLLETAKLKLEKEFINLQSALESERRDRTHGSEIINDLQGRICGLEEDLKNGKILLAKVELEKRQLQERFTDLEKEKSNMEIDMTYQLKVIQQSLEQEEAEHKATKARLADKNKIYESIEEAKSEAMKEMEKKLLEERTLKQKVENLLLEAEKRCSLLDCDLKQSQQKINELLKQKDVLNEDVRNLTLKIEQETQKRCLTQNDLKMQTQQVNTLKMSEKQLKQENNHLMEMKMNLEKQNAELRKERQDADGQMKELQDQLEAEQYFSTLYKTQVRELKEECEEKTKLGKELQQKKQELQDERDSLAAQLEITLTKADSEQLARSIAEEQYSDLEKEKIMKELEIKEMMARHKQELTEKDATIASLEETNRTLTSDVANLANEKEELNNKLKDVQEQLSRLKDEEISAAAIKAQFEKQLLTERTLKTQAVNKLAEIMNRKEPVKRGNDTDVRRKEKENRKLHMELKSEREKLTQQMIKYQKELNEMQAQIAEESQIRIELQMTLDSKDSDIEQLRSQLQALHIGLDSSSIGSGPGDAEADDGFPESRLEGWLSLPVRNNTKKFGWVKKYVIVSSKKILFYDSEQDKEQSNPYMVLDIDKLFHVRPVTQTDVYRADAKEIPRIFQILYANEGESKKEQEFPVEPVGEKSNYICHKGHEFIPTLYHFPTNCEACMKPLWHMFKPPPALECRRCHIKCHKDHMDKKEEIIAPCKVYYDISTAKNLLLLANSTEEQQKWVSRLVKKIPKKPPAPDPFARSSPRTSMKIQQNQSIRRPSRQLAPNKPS

[37] = molecular target: DAPK3 (human) (UniProt O43293)
[38] = molecular target: PIM2 (human) (UniProt Q9P1W9)
[39] = molecular target: ADRBK2 (human) (UniProt P35626)
[40] = molecular target: EPHA4 (human) (UniProt P54764)
[41] = molecular target: RPS6KA6 KD1 KD2 (human) (UniProt Q9UK32)
[42] = molecular target: EPHB3 (human) (UniProt P54753)

KIT (human), sequence (P10721 whole entry, looked up): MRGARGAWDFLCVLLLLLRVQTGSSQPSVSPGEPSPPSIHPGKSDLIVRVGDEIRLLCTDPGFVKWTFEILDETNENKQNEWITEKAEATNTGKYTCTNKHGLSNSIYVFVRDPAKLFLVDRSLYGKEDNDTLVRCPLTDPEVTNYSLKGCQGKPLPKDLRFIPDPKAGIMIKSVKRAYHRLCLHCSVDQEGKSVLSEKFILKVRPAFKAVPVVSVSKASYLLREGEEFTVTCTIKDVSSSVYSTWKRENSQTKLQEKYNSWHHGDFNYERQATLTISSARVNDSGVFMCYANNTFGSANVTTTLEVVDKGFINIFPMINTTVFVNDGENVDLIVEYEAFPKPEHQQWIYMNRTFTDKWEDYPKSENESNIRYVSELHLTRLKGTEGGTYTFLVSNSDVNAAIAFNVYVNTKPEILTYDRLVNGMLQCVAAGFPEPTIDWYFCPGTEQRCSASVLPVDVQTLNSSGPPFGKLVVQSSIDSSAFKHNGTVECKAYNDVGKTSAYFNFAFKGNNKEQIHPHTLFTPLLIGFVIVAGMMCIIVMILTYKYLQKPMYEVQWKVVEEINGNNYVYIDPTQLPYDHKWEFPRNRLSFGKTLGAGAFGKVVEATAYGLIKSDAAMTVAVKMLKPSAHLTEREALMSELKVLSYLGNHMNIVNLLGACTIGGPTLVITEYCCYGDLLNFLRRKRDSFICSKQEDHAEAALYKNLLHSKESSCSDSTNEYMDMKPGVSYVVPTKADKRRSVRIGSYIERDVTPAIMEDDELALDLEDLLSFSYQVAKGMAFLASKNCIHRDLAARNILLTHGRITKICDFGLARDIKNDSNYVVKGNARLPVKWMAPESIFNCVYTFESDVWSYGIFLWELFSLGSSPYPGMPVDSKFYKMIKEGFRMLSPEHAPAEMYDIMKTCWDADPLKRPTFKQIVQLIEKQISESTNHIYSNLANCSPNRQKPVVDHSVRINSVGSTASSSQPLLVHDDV

For COc1ccc(Cl)cc1NC(=O)Nc1cc(C)nc2ccccc12, the residual activity [1] was 97.4%, the residual activity [2] was 91.2% and the residual activity [3] was 94.3%. It also gave a residual activity [4] of 102%, a residual activity [5] of 98.2% and a residual activity [6] of 100%. For the same compound, the residual activity [7] was 82.4%, the residual activity [8] was 102% and the residual activity [9] was 96.8%. The residual activity [10] was 92%, the residual activity [11] was 100% and the residual activity [12] was 101%. For the same compound, the residual activity [13] was 102%, the residual activity [14] was 94.6% and the residual activity [15] was 91.6%. The residual activity [16] was 96.3%, the residual activity [17] was 98.2% and the residual activity [18] was 95.2%. It also gave a residual activity [19] of 93.3%, a residual activity [20] of 110% and a residual activity [21] of 99.8%. For the same compound, the residual activity [22] was 93.7%, the residual activity [23] was 101% and the residual activity [24] was 96.2%. The residual activity [25] was 95.8%, the residual activity [26] was 107% and the residual activity [27] was 94.8%. It also gave a residual activity [28] of 92.5%, a residual activity [29] of 93.2% and a residual activity [30] of 99.1%. The residual activity [31] was 95.7%, the residual activity [32] was 92.4% and the residual activity [33] was 98.5%. For the same compound, the residual activity [34] was 98.8%, the residual activity [35] was 104% and the residual activity [36] was 96.7%. For the same compound, the residual activity [37] was 100%, the residual activity [38] was 99.8% and the residual activity [39] was 103%. The residual activity [40] was 104%.
In the case of N#Cc1c[nH]c2c[nH]/c(=N\Cc3cccnc3)cc2/c1=N\c1ccc(F)c(Cl)c1, the residual activity [1] is reported as 99%, the residual activity [2] is reported as 76.1% and the residual activity [3] is reported as 103%. It also gave a residual activity [4] of 92.9%, a residual activity [5] of 103% and a residual activity [6] of 102%. It also gave a residual activity [7] of 89.6%, a residual activity [8] of 92.6% and a residual activity [9] of 95.5%. The residual activity [10] was 71.7%, the residual activity [11] was 96.2% and the residual activity [12] was 89.5%. The residual activity [13] was 107%, the residual activity [14] was 94.1% and the residual activity [15] was 91.2%. It also gave a residual activity [16] of 20.5%, a residual activity [17] of 95.9% and a residual activity [18] of 100%. The residual activity [19] was 102%, the residual activity [20] was 118% and the residual activity [21] was 99.9%. It also gave a residual activity [22] of 85.2%, a residual activity [24] of 99.1% and a residual activity [25] of 98.6%. The residual activity [26] was 111%, the residual activity [27] was 95.7% and the residual activity [28] was 96.2%. For the same compound, the residual activity [29] was 85.1%, the residual activity [30] was 96.5% and the residual activity [31] was 105%. The residual activity [32] was 82.9%, the residual activity [33] was 78.6% and the residual activity [41] was 104%. It also gave a residual activity [34] of 86.6%, a residual activity [35] of 88% and a residual activity [36] of 97.1%. For the same compound, the residual activity [37] was 101%, the residual activity [38] was 101% and the residual activity [39] was 100%. For the same compound, the residual activity [42] was 98.5% and the residual activity [40] was 92.8%.
In the case of COc1cc(Nc2c(C#N)cnc3cc(OCCCN4CCN(C)CC4)c(OC)cc23)c(Cl)cc1Cl, the residual activity [1] is reported as 105%, the residual activity [2] is reported as 79.1% and the residual activity [3] is reported as 95.4%. For the same compound, the residual activity [4] was 93.6%, the residual activity [5] was 94.6% and the residual activity [8] was 94.1%. It also gave a residual activity [9] of 82.6%, a residual activity [10] of 32.6% and a residual activity [11] of 44.1%. For the same compound, the residual activity [12] was 28.3%, the residual activity [13] was 18.9% and the residual activity [14] was 98.3%. It also gave a residual activity [15] of 131%, a residual activity [16] of 15.2% and a residual activity [17] of 140%. The residual activity [18] was 94.2%, the residual activity [19] was 106% and the residual activity [20] was 96.1%. For the same compound, the residual activity [21] was 20.7%, the residual activity [22] was 12.5% and the residual activity [23] was 99.9%. For the same compound, the residual activity [24] was 80.1%, the residual activity [25] was 94.4% and the residual activity [26] was 93.6%. For the same compound, the residual activity [27] was 11.7%, the residual activity [28] was 106% and the residual activity [29] was 69.8%. For the same compound, the residual activity [30] was 93.5%, the residual activity [31] was 72% and the residual activity [32] was 54.6%. It also gave a residual activity [33] of 93.6%, a residual activity [41] of 62% and a residual activity [34] of 21.6%. It also gave a residual activity [35] of 96.9%, a residual activity [36] of 85% and a residual activity [37] of 107%. For the same compound, the residual activity [38] was 111%, the residual activity [39] was 99.2% and the residual activity [42] was 49.4%. For the same compound, the residual activity [40] was 27%.
Work on Fc1ccc(-c2nc3n(c2-c2ccncc2)CCS3)cc1 yielded a residual activity [1] of 115%, a residual activity [2] of 82.6% and a residual activity [3] of 105%. The residual activity [4] was 92.8%, the residual activity [5] was 97.1% and the residual activity [6] was 107%. For the same compound, the residual activity [7] was 97.3%, the residual activity [8] was 82.8% and the residual activity [9] was 95.6%. For the same compound, the residual activity [10] was 93.5%, the residual activity [11] was 112% and the residual activity [12] was 92.2%. The residual activity [13] was 99.5%, the residual activity [14] was 87.9% and the residual activity [15] was 90.5%. It also gave a residual activity [16] of 103%, a residual activity [17] of 89.4% and a residual activity [19] of 100%. For the same compound, the residual activity [20] was 130%, the residual activity [21] was 97.8% and the residual activity [22] was 88%. The residual activity [23] was 104%, the residual activity [24] was 107% and the residual activity [25] was 105%. For the same compound, the residual activity [27] was 96.1%, the residual activity [28] was 99.5% and the residual activity [29] was 91.2%. It also gave a residual activity [30] of 109%, a residual activity [31] of 105% and a residual activity [32] of 86.4%. For the same compound, the residual activity [33] was 103%, the residual activity [41] was 115% and the residual activity [34] was 110%. The residual activity [35] was 94.7%, the residual activity [36] was 99.1% and the residual activity [37] was 100%. It also gave a residual activity [38] of 121%, a residual activity [39] of 95% and a residual activity [42] of 96.1%. It also gave a residual activity [40] of 106%.
